Molecular target: T1, human GnRH receptor (hGnRHR) (Homo sapiens, UniProt P30968)
T1 sequence (P30968 1-328): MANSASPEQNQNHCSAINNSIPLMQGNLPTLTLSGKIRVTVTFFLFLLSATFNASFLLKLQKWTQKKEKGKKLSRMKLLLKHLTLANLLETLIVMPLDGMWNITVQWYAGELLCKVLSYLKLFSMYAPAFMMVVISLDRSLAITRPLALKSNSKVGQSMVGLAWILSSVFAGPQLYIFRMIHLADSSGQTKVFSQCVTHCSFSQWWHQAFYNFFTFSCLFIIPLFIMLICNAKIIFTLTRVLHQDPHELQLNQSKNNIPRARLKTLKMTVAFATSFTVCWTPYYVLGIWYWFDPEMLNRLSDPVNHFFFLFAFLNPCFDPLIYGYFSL
Format: cell-based

- EC50: 3–5×10^−8 M
Structure (SMILES): Cc1cc(C)cc(-c2[nH]c3ccc(C(C)(C)C(=O)N4CC5CCC4CC5)cc3c2[C@H](C)CNCCc2ccncc2)c1 [IN3, (2S)-2-[5-[2-(2-axabicyclo[2.2.2]oct-2-yl)-1,1-dimethy-2-oxoethyl]-2-(3,5-dimethylphenyl)-1H-indol-3-yl]-N-(2-pyridin-4-ylethyl)propan-1-amine]

Reference: publication PMC2229628 (The Journal of Endocrinology, 2008)
